Laboratory results as given in publication PMC7770183, “Enhanced Bioavailability of Boswellic Acid by Piper longum: A Computational and Pharmacokinetic Study” (Frontiers in Pharmacology, 2020).
Like-named read-outs stand apart in the source and are kept apart here.

Experiment: Pharmacokinetic study of β-boswellic acid in rabbits with and without Piper longum extract (serum, HPLC-UV)
Format: in vivo
Settings: for AUC(0-t) / AUC(0-inf) / Cmax / Tmax / Vd/F / k el: male, rabbit, serum, po; for AUC(0-t): oral capsule; for Vd/F: read-out: Apparent volume of distribution (Vd/F); for k el: read-out: Ke (converted)
[1] = 20 mg, oral, Control: 20 mg of BA alone
[2] = Test I: 20 mg of BA + 2.5 mg of PL
[3] = Test II: 20 mg of BA + 10 mg of PL

C[C@H]1[C@H](C)CC[C@]2(C)CC[C@]3(C)C(=CC[C@@H]4[C@@]5(C)CC[C@@H](O)[C@](C)(C(=O)O)[C@@H]5CC[C@]43C)[C@H]12 [β-boswellic acid, 3α-hydroxyurs-12-en-24-oic acid]
AUC(0-t) (20 mg, Control: 20 mg of β-boswellic acid (BA) alone): 766 ± 22.8 ng·h/mL
AUC(0-inf) [1]: 772 ± 22.1 ng·h/mL
Cmax [1]: 260 ± 21.3 ng/mL
Tmax [1]: 2 ± 0.18 h
Vd/F [1]: 96 ± 14 L
k el [1]: 0.000131 s⁻¹
AUC(0-inf) [2]: 2660 ± 102 ng·h/mL
Cmax [2]: 321.4 ± 2.7 ng/mL
Tmax [2]: 2 ± 0.22 h
Vd/F [2]: 43.2 ± 7 L
k el [2]: 5.24e-05 s⁻¹
AUC(0-inf) [3]: 2850 ± 251 ng·h/mL
Cmax [3]: 359 ± 12 ng/mL
Tmax [3]: 3 ± 0.26 h
Vd/F [3]: 67.5 ± 11 L
k el [3]: 3.07e-05 s⁻¹
AUC(0-t) (Test I: 20 mg of BA + 2.5 mg of adjuvant (PL)): 1890 ± 109 ng·h/mL
AUC(0-t) (Test II: 20 mg of BA + 10 mg of adjuvant (PL)): 2210 ± 115 ng·h/mL
Ka (oral, Control: 20 mg of BA alone): 0.6168 ± 0.16 h⁻¹
Ka (oral, Test I: 20 mg of BA + 2.5 mg of PL): 0.740 ± 0.22 h⁻¹
Ka (oral, Test II: 20 mg of BA + 10 mg of PL): 0.6112 ± 0.17 h⁻¹
time of complete elimination from serum (oral, β-boswellic acid alone): 9 h
